From patent publication US12569477B2, “Compositions for synergistically enhancing mitochondrial function” (MITOCHOLINE LTD, priority 2017, dated 2026)

How the values were obtained:
[1] = test system: whole-brain ATP levels; conditions: for ATP, % (ATP levels in the brain at 15th min after ischemia onset, in percent to baseline): male rats, 10 mg/kg for 7 days, global ischemia, mean±SEM, baseline 100%, saline 35.3 ± 3.0
Method: Then global ischemia was induced in rats by cardiac arrest under anesthesia and whole-brain ATP levels were measured by 31P NMR in vivo for 15 min. Results are presented in Table 3 as mean±SEM ATP levels in the brain at 15th min after ischemia onset, in percent to baseline (accepted for 100%).

[2] = test system: primary neurons and astrocytes; assay: Mitochondrial NADH autofluorescence in primary neurons and astrocytes; assay type: cell-based, mouse; conditions: for NADH autofluorescence, % of control: after 20 min of incubation; for NADH autofluorescence, % of control / Initial change of mitochondrial NADH level on application: DiSU 50 μM, NAM 20 μM, sodium succinate 50 μM
Method: Mixed cultures of cortical neurons and glial cells were prepared as described, from mouse pups 1-3 days postpartum. Neurons were easily distinguishable from glia: they appeared phase bright, had smooth rounded somata and distinct processes, and positioned just above the focal plane of the glial layer. Cells were used at 14-21 DIV. Experiments were conducted in HBSS solution at the 37° C.
To estimate the mitochondrial pool of NADH, maximal activation of mitochondrial respiration is induced by uncoupler FCCP (mitochondrial NADH is taken 0) followed by inhibition of respiration by NaCN (NADH is maximal due to inhibition of consumption). This set up provides evaluation of several characteristics: the rate of NADH production in TCA cycle (recovery of the NADH signal after NaCN), total mitochondrial pool and redox index.

[3] = test system: primary myotubes; assay: Mitochondrial NADH redox index and NADH pool in myotube cultures; assay type: cell-based, rat; conditions: blend 1: 100 μM DiSU+40 μM NAM; blend 2: 50 μM DiSU+20 μM NAM; choline (100, succinate (50 μM), NAM (50 μM)); FIG. 1B
Method: (§1) Primary Skeletal Muscle Cell culture. Primary myotube cells were obtained from postnatal day 0-2 (P0-P2) rat pups which were sacrificed by decapitation. Briefly, the rats were immersed in 70% ethanol and the hind-limbs removed under a dissection microscope, in dissection solution containing Dulbecco's Phosphate Buffered Saline (PBS) with penicillin streptomycin (5000 units/ml) and Amphotericin B (2.5 mg/L). The tissues were then digested in 0.2% collagenase solution at 37° C. for 30-40 minutes.
The reaction was stopped by adding 2-3 ml fetal bovine serum (FBS), and the tissue suspension was centrifuged at 2010 rpm (700 g) for 10 minutes. The cell pellet was resuspended in pre-warmed growth medium, Dulbecco's modified Eagle's medium (DMEM), containing 20% FBS, 100 i.u./ml penicillin and 200 i.u./ml streptomycin], and plated on 22 mm coverslips that were pre-coated with 0.2% gelatin for 1 hour at 37° C. Cells were then cultured in a humidified CO2 incubator (5% CO2 in air) at 37° C. After 2 or 3 days, the medium was changed to a low-serum medium (DMEM containing 10% FBS without antibiotics), and was subsequently renewed every 3 or 4 days. All experiments were performed in vitro between days 2 and 11 in culture when spindle-shaped myoblasts had proliferated and aligned themselves for fusion (˜70% confluency).

[4] = test system: primary myotubes; assay: Autophagy/mitophagy: co-localization of mitochondria and lysosomes in primary myotubes; assay type: cell-based, rat; conditions: 50 μM DiSU+20 μM NAM or single components in corresponding molar amounts
Source text: The upper panels show confocal images of cells loaded with two dyes MitoTracker Green (labeling mitochondria) and LysoTracker Red (labeling lysosomes); the lower panel: quotative evaluation of co-localization of mitochondria and lysosomes in cells. […] Values are presented as mean±SD. **P<0.001. Independent experiments (n) are indicated as dots in the scatter plot.

[5] = test system: primary myotubes; assay: Mitochondrial membrane potential (TMRM) in primary myotubes; assay type: cell-based, rat; conditions: DiSU 50 μM, NAM 20 μM, or both (2:1:0.4); n=67 myotubes
Method: as §1
The reaction was stopped by adding 2-3 ml fetal bovine serum (FBS), and the tissue suspension was centrifuged at 2010 rpm (700 g) for 10 minutes. The cell pellet was resuspended in pre-warmed growth medium, Dulbecco's modified Eagle's medium (DMEM), containing 20% FBS, 100 i.u./ml penicillin and 200 i.u./ml streptomycin], and plated on 22 mm coverslips that were pre-coated with 0.2% gelatin for 1 hour at 37° C. […]
Tetramethyl rhodamine methyl ester (TMRM) was used to study the changes of the mitochondrial membrane potential (Δψm). […] TMRM fluorescence was excited at 543 nm (HeNe laser), and emission was measured at >560 nm. […] Therefore, the changes in potential are reflected by changes in fluorescence intensity within the mitochondria which is measured after thresholding out the background signal from the cytosol to give a mean value per pixel within the mitochondrial population of a cell. […]

[6] = test system: cortical neurons and glial cells; assay: ATP levels in mixed primary cultures of cortical neurons and glial cells (AT1.03 probe, confocal microscopy); conditions: same treatments as ATP, control 0
Method: Mixed primary cultures of cortical neurons and glial cells were prepared from mouse pups 1-3 days postpartum, as described by Vaarmann A. et al., 2010 (Cell Calcium 2010, 48(2-3):176-82). For measurements of ATP, the cells at 14-21 DIV were transfected for 24 h with the ATP sensing probe AT1.03 (as described in Imamura H et al., PNAS 2009, 106(37):15651-15656) using Lipofectamine 2000 according to the manufacturer's instructions. […] Then, ATP levels in cells were measured using confocal microscopy. […] All data presented were obtained from at least 5 coverslips and 2-3 different cell preparations.
Mean of ATP levels in non-treated cells (control) was accepted for 100%. Effects of the treatments on ATP levels in cells (ΔATP) were calculated by formula: ΔATP=ATPtreat−ATPcontrol, wherein ATPtreat is ATP level in treated cells and ATPcontrol is ATP levels in control cells.

O=C([O-])CCC(=O)[O-].[Na+].[Na+] [Sodium succinate, sodium succinate]
ATP, % (ATP levels in the brain at 15th min after ischemia onset, in percent to baseline) [1]: 34.3 ± 2.4% | NADH autofluorescence, % of control [2]: not detected a noticeable increase | Initial change of mitochondrial NADH level on application [2]: fast and significant decrease | NADH redox index [3]: did not induce significant changes | Autophagy (co-localization of mitochondria and lysosomes) [4]: not

choline succinate salt (2:1) [DiSU]
ATP, % (ATP levels in the brain at 15th min after ischemia onset, in percent to baseline) [1]: 55.5 ± 4.8 % | ATP levels in the brain under normoxia ([1]; rats, normoxia): did not affect | NADH autofluorescence, % of control [2]: 123±6 % of control | Initial change of mitochondrial NADH level on application [2]: only slight initial decrease | Increase in TMRM fluorescence (mitochondrial membrane potential) compared to control [5]: increase | Autophagy (co-localization of mitochondria and lysosomes) [4]: significantly increase

C[N+](C)(C)CCO.[Cl-] [Choline chloride, choline chloride]
ATP, % (ATP levels in the brain at 15th min after ischemia onset, in percent to baseline) [1]: 36.8 ± 5.0%

NC(=O)c1cccnc1 [NAM, nicotinamide]
Mitochondrial NADH pool, % of control ([2]; NAM 20 μM alone, short term (15-20 min)): 116±8 % of control | Increase in TMRM fluorescence (mitochondrial membrane potential) compared to control [5]: increase | Autophagy (co-localization of mitochondria and lysosomes) [4]: not

O=C(O)c1cccnc1 [Nicotinic acid, nicotinic acid]
ΔATP, % (ATPtreat−ATPcontrol) [6]: +1%

O=C([O-])CCC(=O)[O-].[K+].[K+] [Dipotassium succinate, dipotassium succinate]
ATP, % (ATP levels in the brain at 15th min after ischemia onset, in percent to baseline) [1]: 40.9 ± 9.0%
